Laboratory results published in the supplement of paper PMC11451515.

Tested on: SEM cells
Assay: cell viability relative to DMSO control; higher = less cytotoxic
Details: 48 h
In short: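 Viability is expressed as a percentage of DMSO wells within each plate, and cell-free wells serve as background. Seeding densities in the 1536-well plates (5 μl) were 500 cells/well for NOMO1 or SEM leukemia cells and 1000 cells/well for P12-Ichikawa. Each line was adapted for at least four passages in each medium. Library compounds in DMSO were pin-dosed at 47 μM to 0.79 nM (11 points, threefold), and CellTiter-Glo One luminescence was read after 48 h at 37°C.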

[1] = HPLM + 10% dialyzed FBS, 0.000781 µM
[2] = HPLM + 10% dialyzed FBS, 0.00234 µM
[3] = HPLM + 10% dialyzed FBS, 0.00702 µM
[4] = HPLM + 10% dialyzed FBS, 0.0211 µM
[5] = HPLM + 10% dialyzed FBS, 0.0632 µM
[6] = HPLM + 10% dialyzed FBS, 0.19 µM
[7] = HPLM + 10% dialyzed FBS, 0.569 µM
[8] = HPLM + 10% dialyzed FBS, 1.71 µM
[9] = HPLM + 10% dialyzed FBS, 5.12 µM
[10] = HPLM + 10% dialyzed FBS, 15.4 µM
[11] = HPLM + 10% dialyzed FBS, 46.1 µM
[12] = RPMI 5 mM glucose + 10% FBS, 0.000781 µM
[13] = RPMI 5 mM glucose + 10% FBS, 0.00234 µM
[14] = RPMI 5 mM glucose + 10% FBS, 0.00702 µM
[15] = RPMI 5 mM glucose + 10% FBS, 0.0211 µM
[16] = RPMI 5 mM glucose + 10% FBS, 0.0632 µM
[17] = RPMI 5 mM glucose + 10% FBS, 0.19 µM
[18] = RPMI 5 mM glucose + 10% FBS, 0.569 µM
[19] = RPMI 5 mM glucose + 10% FBS, 1.71 µM
[20] = RPMI 5 mM glucose + 10% FBS, 5.12 µM
[21] = RPMI 5 mM glucose + 10% FBS, 15.4 µM
[22] = RPMI 5 mM glucose + 10% FBS, 46.1 µM
[23] = RPMI 5 mM glucose + 10% dialyzed FBS, 0.000781 µM
[24] = RPMI 5 mM glucose + 10% dialyzed FBS, 0.00234 µM
[25] = RPMI 5 mM glucose + 10% dialyzed FBS, 0.00702 µM
[26] = RPMI 5 mM glucose + 10% dialyzed FBS, 0.0211 µM
[27] = RPMI 5 mM glucose + 10% dialyzed FBS, 0.0632 µM
[28] = RPMI 5 mM glucose + 10% dialyzed FBS, 0.19 µM
[29] = RPMI 5 mM glucose + 10% dialyzed FBS, 0.569 µM
[30] = RPMI 5 mM glucose + 10% dialyzed FBS, 1.71 µM
[31] = RPMI 5 mM glucose + 10% dialyzed FBS, 5.12 µM
[32] = RPMI 5 mM glucose + 10% dialyzed FBS, 15.4 µM
[33] = RPMI 5 mM glucose + 10% dialyzed FBS, 46.1 µM

SMILES | cell viability [1] [%] | cell viability [2] [%] | cell viability [3] [%] | cell viability [4] [%] | cell viability [5] [%] | cell viability [6] [%] | cell viability [7] [%] | cell viability [8] [%] | cell viability [9] [%] | cell viability [10] [%] | cell viability [11] [%] | cell viability [12] [%] | cell viability [13] [%] | cell viability [14] [%] | cell viability [15] [%] | cell viability [16] [%] | cell viability [17] [%] | cell viability [18] [%] | cell viability [19] [%] | cell viability [20] [%] | cell viability [21] [%] | cell viability [22] [%] | cell viability [23] [%] | cell viability [24] [%] | cell viability [25] [%] | cell viability [26] [%] | cell viability [27] [%] | cell viability [28] [%] | cell viability [29] [%] | cell viability [30] [%] | cell viability [31] [%] | cell viability [32] [%] | cell viability [33] [%]
OCCCNc1cc(-c2ccnc(Nc3cccc(Cl)c3)n2)ccn1 | 86.3 | 99.5 | 110 | 108 | 121 | 45.7 | 10.1 | 8.28 | 6.56 | 5.81 | 3.56 | 103 | 125 | 125 | 123 | 143 | 88.2 | 10.4 | 5.66 | 6.14 | 5.72 | 3.94 | 96.2 | 105 | 114 | 113 | 122 | 62.1 | 10.9 | 5.73 | 6.76 | 5.91 | 3.62
N[C@@H](CC(=O)N1CCn2c(nnc2C(F)(F)F)C1)Cc1cc(F)c(F)cc1F | 111 | 113 | 110 | 118 | 105 | 105 | 99.8 | 117 | 107 | 41.9 | 93.3 | 100 | 104 | 98.1 | 102 | 132 | 113 | 106 | 112 | 109 | 50 | 96.4 | 96.9 | 118 | 103 | 97.4 | 103 | 108 | 96.8 | 98.8 | 92.3 | 40.1 | 98.6
COC(=O)[C@@H](N)CCCNC(=N)N[N+](=O)[O-] | 82 | 37.9 | 89.1 | 96.1 | 94.3 | 95.1 | 87.2 | 110 | 93.1 | 89.9 | 95.2 | 95.5 | 39.2 | 90.7 | 92.1 | 95.2 | 102 | 90.3 | 101 | 104 | 104 | 101 | 85.1 | 26.2 | 78 | 89.3 | 101 | 84.8 | 99 | 108 | 101 | 107 | 104
COc1cc(OC)c(NC(=O)Nc2cc(C)on2)cc1Cl | 95.9 | 94.2 | 104 | 98.4 | 94.6 | 99.8 | 97.3 | 112 | 100 | 97.5 | 71.3 | 74.3 | 79.6 | 90.9 | 89.6 | 82 | 86.5 | 91.3 | 92 | 76.6 | 80.6 | 63.8 | 84.8 | 100 | 90.3 | 94.5 | 105 | 108 | 96.1 | 89.7 | 101 | 91.5 | 71.1
CN(C)c1ccc2cc(C(=O)N[C@@H](CCCNC(=N)CCl)C(=O)NCc3ccccc3)ccc2c1 | 114 | 115 | 101 | 115 | 117 | 112 | 113 | 121 | 110 | 101 | 11.7 | 113 | 112 | 104 | 111 | 112 | 110 | 120 | 90.9 | 101 | 74.1 | 5.29 | 104 | 105 | 99.7 | 104 | 122 | 108 | 115 | 90 | 106 | 84 | 6.08
COC[C@H]1OC(=O)C2=COC3=C2[C@@]1(C)\C4=C(\[C@@H]5CC[C@H](O)[C@@]5(C)C[C@H]4OC(C)=O)C3=O | 95.1 | 117 | 48.9 | 114 | 113 | 113 | 117 | 111 | 102 | 98.6 | 54.7 | 60.9 | 67.4 | 15.9 | 71.7 | 77.7 | 84.9 | 67.9 | 77.3 | 55.9 | 53.2 | 33.7 | 101 | 99 | 45.8 | 98.4 | 115 | 108 | 104 | 105 | 84.7 | 68.2 | 30.8
N#CC(=C(/N)Sc1ccccc1N)/C(C#N)=C(\N)Sc1ccccc1N | 95.9 | 101 | 129 | 133 | 116 | 123 | 111 | 113 | 94.1 | 100 | 83 | – | – | – | – | – | – | – | – | – | – | – | 116 | 120 | 139 | 151 | 113 | 118 | 111 | 98.2 | 93.2 | 89 | 57.3
C=CCn1c(=O)c2cnc(Nc3ccc(N4CCN(C)CC4)cc3)nc2n1-c1cccc(C(C)(C)O)n1 | 117 | 118 | 127 | 110 | 98.6 | 81.4 | 61.4 | 28.3 | 25.7 | 24.5 | 29.4 | – | – | – | – | – | – | – | – | – | – | – | 111 | 119 | 135 | 93.5 | 90.8 | 64.6 | 52.7 | 26.3 | 15.7 | 19.3 | 21.8
O=C(NNC(=O)c1ccc(CN[S+](=O)([O-])c2ccc(F)c(Cl)c2)cc1)c1ccccc1 | 84.6 | 97.1 | 98.2 | 89.9 | 107 | 109 | 109 | 102 | 112 | 106 | 87 | 92.9 | 85.2 | 92.5 | 75 | 91.5 | 98.3 | 102 | 105 | 88.2 | 104 | 106 | 79.6 | 76.6 | 89.6 | 97.4 | 96 | 91.1 | 93.1 | 96.9 | 87 | 103 | 64.5
COc1ccc2c(c1OC)CN1CCc3cc4c(cc3C1C2)OCO4 (stereo unspecified) | 85.3 | 80.1 | 86.5 | 104 | 87.4 | 64.3 | 72.8 | 41.3 | 13 | 8.04 | 7.89 | 92.5 | 93.6 | 87 | 93.6 | 84.3 | 45.6 | 59.8 | 20.2 | 9.42 | 7.3 | 6.85 | 79.6 | 83.1 | 96.7 | 90.8 | 99 | 55 | 56.5 | 28.8 | 11.3 | 8.19 | 8.01
NC\1=N\C(=O)N(\C=C1)[C@H]\2[C@H](O)[C@H](O)C(=C2F)\CO | 77.6 | 90.2 | 85 | 103 | 92.2 | 97.6 | 108 | 96.3 | 52.5 | 28.8 | 16.8 | 118 | 116 | 130 | 148 | 113 | 118 | 128 | 117 | 74.1 | 74.5 | 57.9 | 90.2 | 95.3 | 95.1 | 103 | 117 | 109 | 92.2 | 51.8 | 23.1 | 19 | 15.3
C[C@@H]1CC[C@@]2(OC1)OC1CC3C4CC=C5CC(O)CCC5(C)C4CCC3(C)C1[C@@H]2C (stereo partly specified) | 88.6 | 48 | 101 | 100 | 100 | 106 | 107 | 95.1 | 102 | 91.4 | 73.6 | 85.9 | 40.2 | 97.9 | 89.7 | 93.3 | 93.2 | 93.6 | 90.4 | 96.1 | 76.3 | 26.6 | 86.3 | 44.1 | 93.9 | 107 | 88.6 | 104 | 92.4 | 84.1 | 101 | 85.5 | 61.5
CN(C)CCN(Cc1ccc(Cl)cc1)c1ccccn1.Cl | 79.9 | 80.5 | 80.9 | 80.1 | 79.3 | 84.8 | 89.9 | 94.4 | 86.6 | 88 | 86.9 | 90.8 | 90.8 | 92.8 | 84.4 | 95.7 | 108 | 102 | 99.5 | 98.8 | 103 | 84.7 | 83.2 | 92.1 | 96.4 | 100 | 94 | 106 | 84 | 96.1 | 92.2 | 106 | 91.6
CC(C)(C)NC(=O)[C@H]1CC[C@H]2[C@@H]3CC[C@H]4NC(=O)\C=C/[C@]4(C)[C@H]3CC[C@]12C | 88.1 | 89.3 | 98.7 | 92 | 95.8 | 94.4 | 101 | 88.3 | 102 | 104 | 101 | 91.9 | 92.4 | 104 | 95.5 | 97.3 | 90.2 | 91.5 | 99.7 | 94 | 106 | 90.9 | 95.4 | 87.6 | 91.7 | 94.2 | 104 | 99.8 | 104 | 115 | 111 | 99.2 | 91.2
CNCC(O)C(O)C(O)C(O)CO.O=C(O)c1ccc(-c2cc3cccnc3c(-c3ccc4nonc4c3)n2)cc1 | 104 | 103 | 99.1 | 115 | 114 | 115 | 114 | 131 | 112 | 92.7 | 92 | 100 | 107 | 109 | 108 | 115 | 108 | 115 | 111 | 103 | 108 | 88.8 | 98 | 97.6 | 120 | 103 | 108 | 101 | 112 | 103 | 127 | 87.6 | 65.8
Cc1ccc(-c2ncn(-c3ccc(Nc4nccc(-c5cccc(N6CCOCC6)c5)n4)cc3)n2)cn1 | 75.3 | 93 | 103 | 94.5 | 70.9 | 65.3 | 4.95 | 3.93 | 3.48 | 3.55 | 6.89 | 90.3 | 98.9 | 101 | 104 | 75.1 | 32.3 | 5.46 | 4.61 | 3.18 | 3.66 | 5.27 | 81.6 | 95.5 | 90.7 | 94.4 | 66.9 | 48 | 5.8 | 4.65 | 4.48 | 3.85 | 5.94
